# Test results from patent US11357786B2, “Synthetic disugar hydrocarbons as natural analogs to control microbial behaviors” (Syracuse University, priority 2014, dated 2022).
# Experiments:
# Type in all cases: cell-based, Pseudomonas aeruginosa
# 24 h old PAO1 biofilm = assay: Crystal violet biofilm dispersion assay, maltose derivatives (Example 1); conditions: concentration not given
# Protocol: Chemical dispersion of already formed biofilm is often more relevant to medical application, and more challenging than biofilm inhibition assays, for which the agents are introduced at the onset of an experiment. We screened the ability of maltose derivatives at 110 μM to disperse 24 h old biofilm.
# PAO1 was allowed to grow for 24 h at 37° C. After 24 h, bacterial culture was pipetted out and replaced with 200 μL of 110 μM maltose hydrocarbons and sterile water (control). After 1 h treatment with maltose hydrocarbons, biofilm was fixed and quantified using crystal violet dye as described above. The amount of dispersed biofilm was determined via comparison of the amount of biofilm at 24 h in the presence of maltose hydrocarbons versus the amount of biofilm in the “no compound” positive control at 24 h (wells with water treatment).
# Predetermined amounts maltose derivatives stock solution was added to the 200 μL bacterial culture in 96 well plate so that the final concentration of the agent reaches the desired values of 1, 5, 10, 20, 40, 85, 113, 140 μM. Biofilm inhibition and dispersion assay was carried as described previously.
# PAO1-GFP = assay: microbe, parasite or virus in culture
# Protocol: (§1) A crystal violet (CV) assay was used to measure the amount of PAO1 biofilm formed after 24 h of bacterial inoculation. The fluorescence of green fluorescent proteins (GFP) expressed by PAO1-GFP was measured to directly quantify bacterial adhesion on polystyrene black 96 well plates with and without maltose derivatives after 2 h of bacterial inoculation. To evaluate the potential of maltose derivatives as both anti-biofilm and anti-adhesion agents, they were compared to a brominated furanone (BF8) known to inhibit biofilm formation, and two generic surfactants, sodium dodecyl sulfate (SDS) and tetra (ethylene glycol) monododecyl ether (C12EG4OH). […] P. aeruginosa strain PAO1-EGFP that constitutively producing green fluorescent protein was allowed to form biofilm on sterile steel coupons.
# Overnight culture of PAO1-GFP was subcultured to an OD600 of 0.01 into the 95:5 M9+:Lb medium. Subculture was allowed to reach the OD600 of 0.1 in a rotary shaker at 250 rpm and 37° C. 200 μL of the subculture was then transferred to the wells of black microtiter plate with and without (control) maltose derivatives. This black 96 well plate was then incubated in a shaker at 37° C. for 2 h. After 2 h, bacterial culture from the plate was discarded and each well was washed once with saline water (0.85 w/v % aqueous NaCl solution). Fresh 95:5 M9+:Lb medium was added to the black 96 well plate and fluorescence of the surface adhered bacteria was measured by Synergy 2 multi-mode microplate reader with Gen5 data analysis software at an excitation wavelength of 500 nm and an emission wavelength of 540 nm. Background signal from 95:5 M9+:Lb medium was eliminated from all the samples.
# PAO1-EGFP biofilm = assay: Biofilm on steel coupons, fluorescence / CLSM; conditions: 160 μM, 24 h, LB media
# Protocol: as §1
# Confocal laser scanning microscopy (CLSM) based biofilm inhibition assay. Steel coupons (˜1×1 cm) were washed with EtOH, dried under a stream of nitrogen and then sterilized in an autoclave. Overnight culture of PAO1/EGFP (OD600 ˜1.0) grown in LB media (supplemented with 300 μg/mL of carbenicillin), was sub-cultured to OD600˜0.01 and then the OD600 was allowed to reach ˜0.1. Aliquot (600 μL) of PAO1/EGFP subculture OD600˜0.1 was then added into the wells of a 24-well micro titer plate. DSHs were then introduced into the assigned wells to reach a resultant concentration of 160 μM. Bacterial sub-culture with no agent served as positive control. Sterile steel coupons were then placed into the wells and the plates were wrapped with saran wrap and incubated for 24 h at 37° C. under static conditions. After 24 hours, the steel coupons were removed and washed by dipping in PBS buffer (2 washes) and the dried by holding with a forcep and gently dabbing the edge on a bleached paper (KIM wipes). The dried steel coupons were viewed under confocal laser scanning microscope (CLSM). Images were taken at 4 random locations on each steel coupons. Z-stacked images were also taken to determine the relative thickness of the biofilm.
SMILES,Anti-biofilm activity (dispersion) (24 h old PAO1 biofilm),"Inhibition of PAO1-EGFP adhesion on polystyrene (PAO1-GFP; 85 μM, 2 h)","inhibition at 85 µM (PAO1-GFP; Pseudomonas aeruginosa, PAO1, 2 h, read-out: Inhibition of PAO1-EGFP adhesion on polystyrene) [%]",PAO1-EGFP biofilm on stainless steel coupons (CLSM) (PAO1-EGFP biofilm)
"CCCCCCCCCCCCOCCOCCOCCOCCO [C12EG4OH, tetra (ethylene glycol) monododecyl ether, reference compound]",did not show any anti-biofilm activities,about 40%,,
"CCCCCCCCCCCCOS(=O)(=O)[O-].[Na+] [SDS, sodium dodecyl sulfate, reference compound]",did not show any anti-biofilm activities,,~40,
"CC(C)CCCC(C)CCCC(C)CCO[C@H]1O[C@H](CO)[C@@H](O[C@@H]2O[C@H](CO)[C@@H](O)[C@H](O)[C@H]2O)[C@H](O)[C@H]1O (stereo partly drawn) [SFαC (13), saturated farnesyl-α-cellobioside]",,,,decreased the fluorescence signal significantly
"CC(C)CCCC(C)CCCC(C)CCO[C@@H]1O[C@H](CO)[C@@H](O[C@@H]2O[C@H](CO)[C@@H](O)[C@H](O)[C@H]2O)[C@H](O)[C@H]1O (stereo partly drawn) [SFβC (12), saturated famesyl-β-cellobioside]",,,,decreased the fluorescence signal significantly
